Test results published in patent publication US7094801B2, “Chalcone derivatives and their use to treat diseases” (Atherogenics, Inc., priority 2001, dated 2006).

Legend:
IL-4 mRNA = IL-4 mRNA in mouse lungs, ovalbumin sensitization and challenge (real-time PCR); assay type: in vivo; settings: 100 mg/kg/d, compared with vehicle treated mice
Protocol: (§1) Lung tissues were collected from ovalbumin (Calbiochem) or vehicle (2% Cremophor/Bicarbonate) sensitized Balb/c mice (Charles River) with or without treatment of test compound (100 mg/kg/d, from day 0 to day 14). Total RNA samples were isolated by the Trizol method (Life Technologies, Grand Island, N.Y.) and quantitatively measured by UV spectrophotometer, as well as qualitatively examined by ethidum bromide stained gel electrophoresis. First strand cDNA templates were generated with oligo (dT) by Reverse Transcription Kit (Invitrogen, Carlsbad, Calif.). The initial amounts of mRNA of each samples were quantitatively determined by running a SYBR Green (Qiagen, Valencia, Calif.) based real-time PCR (programmed as: initial denaturation at 95° C. for 15 minutes, denaturation at 95° C. for 15 seconds, annealing and elongation at 51±1° C. for 1 minute for total 40 cycles) with a specific pair of primers (IDT Corporation, Coralville, Iowa) and control primers for GAPDH in iCycler IQ Optical System (Hercules, Calif.). The data were statistically analyzed by ANOVA and t-tests with multiple comparisons of means (n=5 and P<0.05 were considered significant).

IL-5 mRNA = IL-5 mRNA in mouse lungs, ovalbumin sensitization and challenge (real-time PCR); assay type: in vivo; settings: 100 mg/kg/d, compared with vehicle treated mice
Protocol: as §1

TNF-α = experiment: Plasma TNF-α levels in LPS-challenged mice; assay type: in vivo, mouse; settings: subcutaneously 100 mg/kg/d, 2 hr prior to LPS injection (1 mg/kg), compared with vehicle controls
Protocol: (§2) Balb/C mice (6–8 weeks) were injected with LPS (1 mg/kg; 5 mls/kg) and sacrificed 2 hr later. Blood was collected for plasma TNF-α levels and lungs for measurement of VCAM-1 mRNA levels by quantitative RT-PCR. Compound 3 administered subcutaneously at a dose of 100 mg/kg/d, 2 hr prior to LPS injection, inhibited TNF-α production by 80% and VCAM-1 expression by 60% compared with vehicle controls.

IFN-gamma mRNA = IFN-gamma mRNA in mouse lungs, ovalbumin sensitization and challenge (real-time PCR); assay type: in vivo; settings: 100 mg/kg/d, compared with vehicle treated mice
Protocol: as §1

VCAM-1 mRNA = experiment: Lung VCAM-1 mRNA levels in LPS-challenged mice (quantitative RT-PCR); assay type: in vivo, mouse; settings: subcutaneously 100 mg/kg/d, 2 hr prior to LPS injection (1 mg/kg), compared with vehicle controls
Protocol: as §2

IL-2 mRNA = IL-2 mRNA in mouse lungs, ovalbumin sensitization and challenge (real-time PCR); assay type: in vivo; settings: 100 mg/kg/d, compared with vehicle treated mice
Protocol: as §1

IL-13 mRNA = IL-13 mRNA in mouse lungs, ovalbumin sensitization and challenge (real-time PCR); assay type: in vivo; settings: 100 mg/kg/d, compared with vehicle treated mice
Protocol: as §1

[1] = tested on: Human Aortic Smooth Mucle Cells (HAoSMC); experiment: Smooth Muscle Cell Proliferation Protocol (3H-thymidine incorporation); assay type: cell-based; settings: HAoSMC stimulated by 5% serum
Protocol: Human Aortic Smooth Mucle Cells (HAoSMC) were obtained from Clonetics, Inc. and were used below passage 10. Cells were seeded in 24-well plates. When cells were 80% confluent, they were made quiescent by adding media containing 0.2% serum (as compared to 5% serum in normal culture media) for 48 hours. The cells were, then, stimulated by 5% serum in the presence or absence of compounds dissolved in DMSO. […] Rapamycin (at 1 and 0.1 μM) was used as a positive control for the assay. After a 20 hour incubation with or without test compounds, 3H-thymidine (0.5 μCi/well) was added to the cells for 4 hours of labeling. Washed cells were then lysed in NaOH and the amount of 3H-thymidine incorporation was determined. Cytotoxicity of the drug was measured by use of the CytolTox 96 assay kit (Promega, Madison, Wis.).

IL-1β = experiment: LPS-stimulated IL-1β secretion in human peripheral blood mononuclear cells; assay type: cell-based; settings: PBMC; for Percent IL-1β Secreted: LPS (1–2 μg/ml) 3 hours
Protocol: Human peripheral blood mononuclear cells were treated with or without Compound 3 for 1 hour, then stimulated with LPS (1–2 μg/ml) for 3 hours. Condition media was collected and IL-1β measured using an ELISA kit. […] See Biological Table 4

IgE = experiment: Serum IgE levels in ovalbumin sensitized Balb/c mice; assay type: in vivo, mouse; settings: 100 mg/kg/d from day 0 to day 14, compared with vehicle treated mice
Protocol: Peripheral blood samples were collected from ovalbumin (Calbiochem) or vehicle (2% Cremophor/Bicarbonate) treated Balb/c mice (Charles River) with or without administration of test compound (100 mg/kg/d, from day 0 to day 14). Serum was obtained by centrifugation and transferred into Microtainer serum tubes and frozen at −80° C. Mouse IgE ELISA Quantitation Kit (Bethyl Laboratories, Inc. Montgomery, Tex. or PharMingen, San Diego, Calif.) was applied to measure the IgE levels of serum samples. Immuno-reactions were performed as Kit protocol with IgE standard and serum samples in duplicates. The results were read in a microplate reader (Bio-Rad Model 550) at 450 nm and the amounts of IgE were calculated according to the standard curve. The limit of detection in our experiments was 7 ng/ml. Compound 3 administrated at 100 mg/kg/d from day 0 to day 14, reduced serum IgE levels by 38% in ovalbumin sensitized Balb/c mice compared with vehicle treated mice.

[2] = tested on: rat adjuvant arthritis model; experiment: DMARD activity in rat adjuvant arthritis (bone erosion, splenomegaly); assay type: in vivo
Protocol: Male Lewis rats (150–175 g) from Charles River Laboratories were anesthetized on day 0 with 3–5% isoflurane anesthesia while the tail base was shaved and adjuvant mixture was injected. Fifty μL of adjuvant (10 mg/ml M. butyricum in mineral oil) was injected subcutaneously into two sites at the tail base. Paw swelling was monitored using a plethysmometer (UGO Basile), after shaving each leg to the level of the Achilles tendon to mark the level of immersion. A baseline paw measurement for both hindpaws was taken between d2-d5 and a second measurement was taken on day 7–8. Onset of paw swelling occurred rapidly between d9–11 and daily measurements were performed every weekday between d9 and day 15. Compounds of the invention and vehicles were dosed either prophylactically (d1–14), or therapeutically (d9–14) after swelling was confirmed. Solutions were injected subcutaneously or given orally by gavage 1–2 times per day. From day 0, rats were weighed every 2–3 days and overall health was monitored. Plasma drug levels, if desired, were measured in tail-vein derived blood samples taken on day 14. On day 15, blood samples were obtained by cardiac puncture, rats were euthanized with CO2, selected organs removed and both hindpaws were amputated and placed in 10% buffered formalin for histopathological analysis. See Biological Table 2. […]

MCP-1 = experiment: In Vitro MCP-1 Activity Assay; assay type: cell-based; settings: Endothelial cell; human endothelial cells, TNF-α (1 ng/ml), approximately 16 hours; read-out: IC50 (amount of compound required to achieve a 50% reduction compared to control), MCP-1
Protocol: Cultured human endothelial cells were seeded in 96-well plates. On the following day cells were stimulated with TNF-α (1 ng/ml) in the presence or absence of compounds dissolved in DMSO. To establish a dose curve and an IC50, multiple concentrations in 2- to 5-fold increments were used. Cells were exposed to TNF-α and compounds for approximately 16 hours. The next day the cells were visually examined via light microscopy to score for visual signs of toxicity. Cell culture media, diluted 1:10, was analyzed by an MCP-1 immunoassay kit (R & D Systems). This assay is a sandwich immunoassay using immobilized anti-MCP-1 antibody in 96-well plate to capture secreted MCP-1 in cell culture media. Captured MCP-1 was subsequently detected with a horse radish peroxidase-conjugated anti-MCP-1 antibody for color development. Compound 3 expressed an IC50 values of >10(the amount of compound (μM) required to achieve a 50% reduction compared to control (cells stimulated with TNF-α only)).

For `COc1cc(OC)c(-c2cc3ccccc3s2)cc1/C=C/C(=O)c1ccc(C(=O)O)cc1` [Compound 3], which “inhibition of ovalbumin induced IL-4 mRNA in the lung” value (IL-4 mRNA) is on record?
Its value is 68%.

And the “inhibition of ovalbumin induced IL-5 mRNA in the lung” value (IL-5 mRNA)?
Its value is 98%.

And the “inhibition of TNF-α production (plasma)” value (TNF-α)?
The value was 80%.

And the “effect on IFN-gamma mRNA in the lung” value (IFN-gamma mRNA)?
The value was “without significantly affecting”.

What about the “inhibition of VCAM-1 expression (lung mRNA)” value (VCAM-1 mRNA) of the same molecule?
Its value is 60%.

What about the “effect on IL-2 mRNA in the lung” value (IL-2 mRNA) of the same molecule?
Its value is “without significantly affecting”.

And the “inhibition of ovalbumin induced IL-13 mRNA in the lung” value (IL-13 mRNA)?
The value was 82%.

What about the IC50 [1] of the same molecule?
The IC50 was 500 nM.

What about the “Percent IL-1β Secreted” value (IL-1β; 1.25 μM) of the same molecule?
Its value is over 40%.

What about the “Percent IL-1β Secreted” value (IL-1β; 2.5 μM) of the same molecule?
The value was over 10%.

And the “Percent IL-1β Secreted” value (IL-1β; 5 μM)?
The value was over 5%.

And the “Percent IL-1β Secreted” value (IL-1β; 10 μM)?
The value was over 1%.

What about the “inhibition of LPS-stimulated IL-1β secretion” value (IL-1β; 1 hour pretreatment, LPS 3 hours) of the same molecule?
The value was “dose dependent inhibition”.

What about the “reduction of serum IgE levels” value (IgE) of the same molecule?
Its value is 38%.

And the splenomegaly ([2]; prophylactically, 100, 50 and 25 mg/kg/d, b.i.d., s.c.)?
The splenomegaly was “inhibit splenomegaly”.

And the “bone erosion in the ankle joint by histopathological analysis” value ([2]; twice daily subcutaneous doses of 60, 40 and 20 mg/kg/d, prophylactically)?
The value was “inhibit bone erosion”.

What about the IC50 (MCP-1) of the same molecule?
Its IC50 is over 10000 nM.
